Test results taken from PMC5342726, “Identification of small molecule inhibitors of ERCC1-XPF that inhibit DNA repair and potentiate cisplatin efficacy in cancer cells” (Oncotarget, 2016).
Read-outs that look alike come from different tables or passages of the source.

How the values were obtained:
APE1 endonuclease = system: APE1 endonuclease; parameters: method as in PMID 18042731; settings: cited from earlier work
H1299 ERCC1 KO cells = assay: Colony survival assay in H1299 ERCC1 KO cells; type: cell-based
Procedure: (§1) We used H460, NSCLC cells, to first assess the impact on colony survival by knocking down ERCC1-XPF in these cells. […] Next, to assess if colony survival is affected we titrated cisplatin in these cells using a fixed concentration of Hit 1(50 μM) or Hit 2 (25 and 50 μM). […] Next, we assessed cisplatin potentiation by treating cells at a fixed cisplatin concentration (cisplatin IC50 in H460 cells) with Hit 1 or 2 titration (Figure 4C, filled symbols). H460 cells were treated with compound for a total of 4 hours while cisplatin was added to the media after 2 hours of compound pre-treatment. […] We also titrated Hit 1 or Hit 2 alone in these cells and treated for 4 h. […] We also assessed the effects of Hit 2 in another NSCLC cell line (H1299), which was either ERCC1 wildtype (WT) or knockout (KO) (Figure 4E).
(§2) Colony survival assay in a total reaction volume of 2.4 mL in a six-well plate Cells were split and seeded at a density of 300-400 format. […]
(§3) with ≥50 cells were counted using a light microscope. […]
(§4) survival was expressed as the ratio of average number of into a linearized pCR4-TOPO vector and transformed colonies in drug treated cells versus control cells x 100. into OneShot TOP10 E. coli using the TOPO-TA Cloning The experiment was done in triplicate for each drug Kit for Sequencing (Thermofisher). […]

H1299 ERCC1 WT cells = assay: Colony survival assay in H1299 ERCC1 WT cells; type: cell-based
Procedure: as §1, §2, §3, §4

H460 xenografts = settings: for tumor growth, combination with cisplatin: 16168 20 mg/kg i.p. daily + cisplatin 3 mg/kg i.p. twice a week

Structure (SMILES): Cc1ccc(S(=O)(=O)Oc2cc(S(=O)(=O)O)cc3cc(S(=O)(=O)O)cc(N)c23)cc1 [NSC16168]
- IC50 (APE1 endonuclease): ~7 µM
- potentiation of cisplatin response, ERCC1 KO (H1299 ERCC1 KO cells): no additional cisplatin potentiation
- potentiation of cisplatin response, ERCC1 WT (H1299 ERCC1 WT cells): potentiated the cisplatin response
- tumor growth, combination with cisplatin (H460 xenografts): inhibited H460 tumor growth
- tumor growth, combination with cisplatin (H460 xenografts; listed as Hit 2): significant effect on tumor growth compared with cisplatin alone
- tumor growth, single agent (H460 xenografts; 16168 20 mg/kg i.p. daily or cisplatin 3 mg/kg i.p. twice a week, 10 days): tumor growth was minimally affected
